Drawing on patent US8575186B2, “Epiminocycloalkyl[b] indole derivatives as serotonin sub-type 6 (5-HT6) modulators and uses thereof” (Albany Molecular Research, Inc., priority 2009, dated 2013), this text covers Ki and melting point for 29 molecules.

In one series the target is human 5-HT6 receptor (Homo sapiens (Human), UniProt P50406). In words: radioligand binding assay (SPA format), [N-methyl-3H]-LSD. The note with it: read-out: human 5HT6 Ki, human 5-HT6 receptor membranes, 10 nM [3H]-LSD.
human 5-HT6 receptor, sequence (P50406 whole entry): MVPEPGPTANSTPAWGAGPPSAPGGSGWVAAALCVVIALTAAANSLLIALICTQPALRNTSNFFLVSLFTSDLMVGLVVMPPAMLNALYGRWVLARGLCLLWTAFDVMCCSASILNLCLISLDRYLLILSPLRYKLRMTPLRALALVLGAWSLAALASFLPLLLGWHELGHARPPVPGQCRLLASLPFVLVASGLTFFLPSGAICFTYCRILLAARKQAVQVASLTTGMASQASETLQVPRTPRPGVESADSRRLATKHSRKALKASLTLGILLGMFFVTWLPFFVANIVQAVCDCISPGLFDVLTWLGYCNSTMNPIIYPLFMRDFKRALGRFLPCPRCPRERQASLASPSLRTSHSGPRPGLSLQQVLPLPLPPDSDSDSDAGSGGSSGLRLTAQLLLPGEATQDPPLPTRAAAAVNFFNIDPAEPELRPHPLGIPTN

pKi: −log10 of the molar value. Where two headings read alike, the source gives them in different places.

One may read the pKi as −log10 of the Ki, conventionally taken in molar units. The melting point is the temperature of the solid-liquid transition.

Molecule `Cl.Cn1c2c(c3cc(S(=O)(=O)c4ccc(F)cc4)ccc31)C1CCC(C2)N1` (centres unmarked) [Example 28, 2-(4-Fluorophenyl)sulfonyl-5-methyl-5,6,7,8,9,10-hexahydro-7,10-epiminocyclohepta[b]indole hydrochloride] came in with a melting point of 210 to 214 °C. The pKi on human 5-HT6 receptor is 7.22.
As to `Cl.Cn1c2c(c3cc(S(=O)(=O)c4ccc(C#N)cc4)ccc31)C1CCC(C2)N1` (centres unmarked) [Example 30, 2-(4-Cyanophenyl)sulfonyl-5-methyl-5,6,7,8,9,10-hexahydro-7,10-epiminocyclohepta[b]indole hydrochloride], the melting point lay within 216 to 218 °C. Moreover, the pKi on human 5-HT6 receptor (hydrochloride) is 6.39.
`COc1ccc(S(=O)(=O)c2ccc3c(c2)c2c(n3C)CC3CCC2N3)cc1.Cl` (centres unmarked) [Example 31, 2-(4-Methoxyphenyl)sulfonyl-5-methyl-5,6,7,8,9,10-hexahydro-7,10-epiminocyclohepta[b]indole hydrochloride]: the melting point is 210 to 212 °C. At human 5-HT6 receptor, the pKi is 7.36.
As to `Cl.Cn1c2c(c3cc(S(=O)(=O)c4ccc(O)cc4)ccc31)C1CCC(C2)N1` (centres unmarked) [Example 32, 2-(4-Hydroxyphenyl)sulfonyl-5-methyl-5,6,7,8,9,10-hexahydro-7,10-epiminocyclohepta[b]indole hydrochloride], the melting point is 210 to 212 °C. For the same molecule, the pKi on human 5-HT6 receptor is 7.96.
In turn, `Cl.Cn1c2c(c3cc(S(=O)(=O)c4cccc(F)c4)ccc31)C1CCC(C2)N1` (centres unmarked) [Example 35, 2-(3-Fluorophenyl)sulfonyl-5-methyl-5,6,7,8,9,10-hexahydro-7,10-epiminocyclohepta[b]indole hydrochloride] displayed a melting point of 240 to 245 °C. The pKi at human 5-HT6 receptor was 8.38.
On the same counts, the results for `Cc1cccc(S(=O)(=O)c2ccc3c(c2)c2c(n3C)CC3CCC2N3)c1.Cl` (centres unmarked) [Example 37, 2-(3-Methylphenyl)sulfonyl-5-methyl-5,6,7,8,9,10-hexahydro-7,10-epiminocyclohepta[b]indole hydrochloride] are 194 to 196 °C and 8.43.
For `Cl.Cn1c2c(c3cc(S(=O)(=O)c4cccc(OC(F)F)c4)ccc31)C1CCC(C2)N1` (centres unmarked) [Example 40, 2-(3-Difluoromethoxyphenyl)sulfonyl-5-methyl-5,6,7,8,9,10-hexahydro-7,10-epiminocyclohepta[b]indole hydrochloride], the melting point is 186 to 190 °C (dec.). At human 5-HT6 receptor, the pKi is 8.24.
Take `COc1cccc(S(=O)(=O)c2ccc3c(c2)c2c(n3C)CC3CCC2N3)c1.Cl` (centres unmarked) [Example 41, 2-(3-Methoxyphenyl)sulfonyl-5-methyl-5,6,7,8,9,10-hexahydro-7,10-epiminocyclohepta[b]indole hydrochloride]: the melting point fell in the range of 186 to 190 °C. Also, the pKi at human 5-HT6 receptor is 7.77.
`Cl.Cn1c2c(c3cc(S(=O)(=O)c4cccc(O)c4)ccc31)C1CCC(C2)N1` (centres unmarked) [Example 42, 2-(3-Hydroxyphenyl)sulfonyl-5-methyl-5,6,7,8,9,10-hexahydro-7,10-epiminocyclohepta[b]indole hydrochloride]: the melting point was in the range of 208 to 212 °C. Further, the pKi on human 5-HT6 receptor is 7.96.
As for `Cl.Cn1c2c(c3cc(S(=O)(=O)c4cccc(N)c4)ccc31)C1CCC(C2)N1` (centres unmarked) [Example 44, 2-(3-Aminophenyl)sulfonyl-5-methyl-5,6,7,8,9,10-hexahydro-7,10-epiminocyclohepta[b]indole hydrochloride], the melting point fell in the range of 220 to 222 °C. At human 5-HT6 receptor, the pKi was 8.20.
With `CNc1cccc(S(=O)(=O)c2ccc3c(c2)c2c(n3C)CC3CCC2N3)c1.Cl` (centres unmarked) [Example 46, 2-[(3-N-Methylamino)phenyl]sulfonyl-5-methyl-5,6,7,8,9,10-hexahydro-7,10-epiminocyclohepta[b]indole hydrochloride], the melting point is 208 to 212 °C (dec.). Besides, the pKi at human 5-HT6 receptor is 8.19.
With `CC(C)Nc1cccc(S(=O)(=O)c2ccc3c(c2)c2c(n3C)CC3CCC2N3)c1.Cl` (centres unmarked) [Example 47, 2-[(3-N-Isopropylamino)phenyl]sulfonyl-5-methyl-5,6,7,8,9,10-hexahydro-7,10-epiminocyclohepta[b]indole hydrochloride], the melting point is 208 to 212 °C (dec.). The pKi on human 5-HT6 receptor is 7.96.
For the molecule `Cl.Cn1c2c(c3cc(S(=O)(=O)c4cccc5ccccc45)ccc31)C1CCC(C2)N1` (centres unmarked) [Example 49, 2-(1-Napthyl)sulfonyl-5-methyl-5,6,7,8,9,10-hexahydro-7,10-epiminocyclohepta[b]indole hydrochloride], the melting point was in the range of 229 to 231 °C. The negative-log Ki (pKi) on human 5-HT6 receptor was 8.85.
Regarding `Cl.Cn1c2c(c3cc(S(=O)(=O)c4ccc(Cl)cc4)ccc31)C1CCC(C2)N1` (centres unmarked) [Example 51, 2-(4-Chlorophenyl)sulfonyl-5-methyl-5,6,7,8,9,10-hexahydro-7,10-epiminocyclohepta[b]indole hydrochloride], the melting point was 310 to 320 °C. The pKi on human 5-HT6 receptor was 7.43.
For `Cc1ccccc1S(=O)(=O)c1ccc2c(c1)c1c(n2C)CC2CCC1N2.Cl` (centres unmarked) [Example 52, 2-(2-Methylphenyl)sulfonyl-5-methyl-5,6,7,8,9,10-hexahydro-7,10-epiminocyclohepta[b]indole hydrochloride], the melting point lay within 186 to 188 °C. For the same molecule, at human 5-HT6 receptor, the pKi was 7.96.
The corresponding values for `Cl.Cn1c2c(c3cc(S(=O)(=O)c4cc(Cl)cc(Cl)c4)ccc31)C1CCC(C2)N1` (centres unmarked) [Example 54, 2-(3,5-Dichlorophenyl)sulfonyl-5-methyl-5,6,7,8,9,10-hexahydro-7,10-epiminocyclohepta[b]indole hydrochloride] are 190 to 195 °C and 8.00.
Turning to `Cl.Cn1c2c(c3cc(S(=O)(=O)c4cc(F)cc(F)c4)ccc31)C1CCC(C2)N1` (centres unmarked) [Example 55, 2-(3,5-Difluorophenyl)sulfonyl-5-methyl-5,6,7,8,9,10-hexahydro-7,10-epiminocyclohepta[b]indole hydrochloride], the melting point was 230 to 235 °C (dec.). For the same molecule, on human 5-HT6 receptor, the pKi was 8.07.
On the same counts, the results for `Cl.Cn1c2c(c3cc(S(=O)(=O)c4cncc(Cl)c4)ccc31)C1CCC(C2)N1` (centres unmarked) [Example 58, 2-[3-(5-Chloro)-pyridine]sulfonyl-5-methyl-5,6,7,8,9,10-hexahydro-7,10-epiminocyclohepta[b]indole hydrochloride] are 202 to 205 °C (dec.) and 7.36.
`Cl.Cn1c2c(c3cc(S(=O)(=O)c4cncc(F)c4)ccc31)C1CCC(C2)N1` (centres unmarked) [Example 59, 2-[3-(5-Fluoro)-pyridine]sulfonyl-5-methyl-5,6,7,8,9,10-hexahydro-7,10-epiminocyclohepta[b]indole hydrochloride] displayed a melting point of 212 to 215 °C. In addition, on human 5-HT6 receptor, the pKi is 6.86.
Turning to `Cl.Cn1c2c(c3cc(S(=O)(=O)c4ccccn4)ccc31)C1CCC(C2)N1` (centres unmarked) [Example 60, 2-(2-Pyridine)sulfonyl-5-methyl-5,6,7,8,9,10-hexahydro-7,10-epiminocyclohepta[b]indole hydrochloride], the melting point was in the range of 222 to 225 °C. Moreover, on human 5-HT6 receptor, the pKi is 6.71.
As for `Cl.Cn1c2c(c3cc(S(=O)(=O)c4cccnc4)ccc31)C1CCC(C2)N1` (centres unmarked) [Example 61, 2-(3-Pyridine)sulfonyl-5-methyl-5,6,7,8,9,10-hexahydro-7,10-epiminocyclohepta[b]indole hydrochloride], the melting point was in the range of 226 to 228 °C. For the same molecule, the pKi at human 5-HT6 receptor is 6.81.
The corresponding values for `Cl.Cn1c2c(c3cc(S(=O)(=O)n4cc(Cl)c5ccccc54)ccc31)C1CCC(C2)N1` (centres unmarked) [Example 67, 2-[1-(3-Chloro)-indole]sulfonyl-5-methyl-5,6,7,8,9,10-hexahydro-7,10-epiminocyclohepta[b]indole hydrochloride] are 204 to 206 °C and 8.39.
Molecule `Cc1cn(S(=O)(=O)c2ccc3c(c2)c2c(n3C)CC3CCC2N3)c2ccccc12.Cl` (centres unmarked) [Example 68, 2-[1-(3-Methyl)-indole]sulfonyl-5-methyl-5,6,7,8,9,10-hexahydro-7,10-epiminocyclohepta[b]indole hydrochloride] came in with a melting point of 212 to 215 °C. For the same molecule, the pKi at human 5-HT6 receptor (hydrochloride) is 8.92.
`CN1C2CCC1c1c(n(C)c3ccc(S(=O)(=O)c4ccsc4)cc13)C2.Cl` (centres unmarked) [Example 70, 2-(3-thienyl)sulfonyl-5-methyl-5,6,7,8,9,10-hexahydro-7,10-N-methyl-epiminocyclohepta[b]indole hydrochloride] yielded a melting point of 238 to 240 °C. On human 5-HT6 receptor, the pKi was 8.09.
As for `Cc1cc(S(=O)(=O)c2cccc(Cl)c2)cc2c3c(n(C)c12)CC1CCC3N1.Cl` (centres unmarked) [Example 73, 2-(3-Chloro-phenyl)sulfonyl-4,5-dimethyl-5,6,7,8,9,10-hexahydro-7,10-epiminocyclohepta[b]indole hydrochloride], the melting point was 227 to 229 °C.
`Cc1cccc(S(=O)(=O)c2cc(C)c3c(c2)c2c(n3C)CC3CCC2N3)c1.Cl` (centres unmarked) [Example 74, 2-(3-Methyl-phenyl)sulfonyl-4,5-dimethyl-5,6,7,8,9,10-hexahydro-7,10-epiminocyclohepta[b]indole hydrochloride] had a melting point of 228 to 230 °C.
As to `Cc1cc(S(=O)(=O)n2ccc3ccccc32)cc2c3c(n(C)c12)CC1CCC3N1.Cl` (centres unmarked) [Example 79, 2-[1-Indolesulfonyl]-4,5-dimethyl-5,6,7,8,9,10-hexahydro-7,10-epiminocyclohepta[b]indole], the melting point was 225 to 228 °C.
`COc1cc(S(=O)(=O)c2ccccc2)cc2c3c(n(C)c12)CC1CCC3N1.Cl` (centres unmarked) [Example 83, 2-Phenylsulfonyl-4-methoxy-5-methyl-5,6,7,8,9,10-hexahydro-7,10-epiminocyclohepta[b]indole hydrochloride] displayed a melting point of 175 to 177 °C.
Turning to `CC(C)Oc1cc(S(=O)(=O)c2ccccc2)cc2c3c(n(C)c12)CC1CCC3N1.Cl` (centres unmarked) [Example 85, 2-Phenylsulfonyl-4-isopropoxy-5-methyl-5,6,7,8,9,10-hexahydro-7,10-epiminocyclohepta[b]indole hydrochloride], the melting point was in the range of 187 to 189 °C.
